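1) Cells in 96-well plates. 2) Compound, 48 h, 5 concentrations. 3) Linear interpolation between surrounding doses. 4) Unreached endpoint = highest concentration. Abbreviation: GI50, concentration required for 50% inhibition of growth.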 Activity calls are given as the source filed them. Cut-off read from the data, not from the text of the source: active = GI50 up to about 1.1 µM and inactive = higher.
Columns and labels:
Assay in all cases: growth of human tumour cells (NCI), 48 h
A549 = system: A549
HCT-116 = system: HCT-116
HCT-15 = system: HCT-15
NCI-H460 = system: NCI-H460
OVCAR-4 = system: OVCAR-4
OVCAR-8 = system: OVCAR-8
RPMI-8226 = system: RPMI-8226
SF-268 = system: SF-268
SK-MEL-5 = system: SK-MEL-5
SN12C = system: SN12C
SNB-19 = system: SNB-19
TK-10 = system: TK-10
UACC-257 = system: UACC-257
UO-31 = system: UO-31
SR = system: SR

Row | Structure (SMILES) | GI50 (A549) | GI50 (HCT-116) | GI50 (HCT-15) [µM] | GI50 (NCI-H460) | GI50 (OVCAR-4) | GI50 (OVCAR-8) | GI50 (RPMI-8226) | GI50 (SF-268) | GI50 (SK-MEL-5) | GI50 (SN12C) | GI50 (SNB-19) | GI50 (TK-10) | GI50 (UACC-257) | GI50 (UO-31) | GI50 (SR)
1 | CCOc1cccc2sc(N)nc12 | > 100 µM (inactive) | > 100 µM (inactive) | > 100 | > 100 µM (inactive) | > 100 µM (inactive) | > 100 µM (inactive) | > 100 µM (inactive) | > 100 µM (inactive) | > 100 µM (inactive) | > 100 µM (inactive) | > 100 µM (inactive) | > 100 µM (inactive) | > 100 µM (inactive) | 56.1 µM (inactive) | –
2 | O=C1c2ccccc2C(=O)N1Cc1ccccc1-c1c2nc(c(-c3ccccc3CN3C(=O)c4ccccc4C3=O)c3ccc([nH]3)c(-c3ccccc3CN3C(=O)c4ccccc4C3=O)c3nc(c(-c4ccccc4CN4C(=O)c5ccccc5C4=O)c4ccc1[nH]4)C=C3)C=C2 | > 100 µM (inactive) | > 100 µM (inactive) | > 100 | > 100 µM (inactive) | > 100 µM (inactive) | > 100 µM (inactive) | > 100 µM (inactive) | > 100 µM (inactive) | 52.7 µM (inactive) | > 100 µM (inactive) | – | > 100 µM (inactive) | > 100 µM (inactive) | > 100 µM (inactive) | > 100 µM (inactive)
3 | CCOc1ccc(NCC(=O)N2CC(=O)Nc3ccccc32)cc1 | > 100 µM (inactive) | > 100 µM (inactive) | > 100 | > 100 µM (inactive) | > 100 µM (inactive) | > 100 µM (inactive) | > 100 µM (inactive) | > 100 µM (inactive) | > 100 µM (inactive) | > 100 µM (inactive) | > 100 µM (inactive) | > 100 µM (inactive) | > 100 µM (inactive) | > 100 µM (inactive) | > 100 µM (inactive)
4 | Cc1ccc(Sc2ccccc2[N+](=O)[O-])cc1 | 35 µM (inactive) | 27.5 µM (inactive) | 20 | 31.1 µM (inactive) | 27.4 µM (inactive) | 32.2 µM (inactive) | 42.4 µM (inactive) | 38.2 µM (inactive) | 15.3 µM (inactive) | 29.8 µM (inactive) | – | 37.8 µM (inactive) | 20 µM (inactive) | 28.8 µM (inactive) | 31.3 µM (inactive)
5 | COc1cc(C(=O)C/C(CCC(=O)Nc2ccc(Cl)cc2Cl)=N/NC(=O)C(N)=O)ccc1O | > 100 µM (inactive) | > 100 µM (inactive) | > 100 | > 100 µM (inactive) | > 100 µM (inactive) | > 100 µM (inactive) | > 100 µM (inactive) | > 100 µM (inactive) | > 100 µM (inactive) | > 100 µM (inactive) | > 100 µM (inactive) | > 100 µM (inactive) | > 100 µM (inactive) | 72.9 µM (inactive) | –
6 | COc1cc(OC)c(C(=O)c2cccs2)cc1N | > 100 µM (inactive) | – | > 100 | > 100 µM (inactive) | > 100 µM (inactive) | > 100 µM (inactive) | > 100 µM (inactive) | > 100 µM (inactive) | > 100 µM (inactive) | > 100 µM (inactive) | > 100 µM (inactive) | > 100 µM (inactive) | > 100 µM (inactive) | 96.6 µM (inactive) | –
7 | Cc1c(C)c2cc3c(=O)c(CCl)coc3c(C)c2oc1=O | > 100 µM (inactive) | > 100 µM (inactive) | > 100 | > 100 µM (inactive) | – | > 100 µM (inactive) | 75 µM (inactive) | > 100 µM (inactive) | > 100 µM (inactive) | > 100 µM (inactive) | > 100 µM (inactive) | > 100 µM (inactive) | > 100 µM (inactive) | > 100 µM (inactive) | –
8 | Cc1cc(NS(=O)(=O)c2ccc(NC(=O)COC(=O)c3cccc4c(=O)c5ccccc5[nH]c34)cc2)no1 | > 100 µM (inactive) | > 100 µM (inactive) | > 100 | > 100 µM (inactive) | > 100 µM (inactive) | > 100 µM (inactive) | > 100 µM (inactive) | > 100 µM (inactive) | > 100 µM (inactive) | > 100 µM (inactive) | > 100 µM (inactive) | > 100 µM (inactive) | > 100 µM (inactive) | > 100 µM (inactive) | > 100 µM (inactive)
9 | C/C(=C/C(=O)Nc1ccccc1)Nc1onc(C)c1C | > 100 µM (inactive) | > 100 µM (inactive) | > 100 | > 100 µM (inactive) | > 100 µM (inactive) | > 100 µM (inactive) | > 100 µM (inactive) | > 100 µM (inactive) | > 100 µM (inactive) | > 100 µM (inactive) | > 100 µM (inactive) | – | > 100 µM (inactive) | > 100 µM (inactive) | –
10 | CC(C)=CCc1c(O)cc(O)c2c1OC(c1ccc(O)cc1)C(O)C2=O (configuration not stated) | 26.1 µM (inactive) | 32.4 µM (inactive) | 21.7 | 27.6 µM (inactive) | 30.5 µM (inactive) | 31.8 µM (inactive) | – | 32.1 µM (inactive) | 22.3 µM (inactive) | 27.7 µM (inactive) | 37.2 µM (inactive) | 24.9 µM (inactive) | 36.2 µM (inactive) | 40 µM (inactive) | –
11 | CCOC(=O)CC1=CSC2=NCCN12 | > 100 µM (inactive) | > 100 µM (inactive) | > 100 | > 100 µM (inactive) | > 100 µM (inactive) | > 100 µM (inactive) | – | > 100 µM (inactive) | > 100 µM (inactive) | > 100 µM (inactive) | > 100 µM (inactive) | > 100 µM (inactive) | > 100 µM (inactive) | > 100 µM (inactive) | –
12 | C/C(CC(=O)Nc1ccc(Cl)cc1)=N\NC(=O)C[n+]1ccccc1 | > 100 µM (inactive) | > 100 µM (inactive) | – | > 100 µM (inactive) | – | > 100 µM (inactive) | > 100 µM (inactive) | > 100 µM (inactive) | > 100 µM (inactive) | – | – | > 100 µM (inactive) | > 100 µM (inactive) | > 100 µM (inactive) | –
13 | COc1cc(NC(C)=O)c2[nH]c3c(C)cc(NC(C)=O)c(C)c3c2c1 | > 100 µM (inactive) | > 100 µM (inactive) | > 100 | > 100 µM (inactive) | > 100 µM (inactive) | > 100 µM (inactive) | > 100 µM (inactive) | > 100 µM (inactive) | > 100 µM (inactive) | > 100 µM (inactive) | > 100 µM (inactive) | > 100 µM (inactive) | – | > 100 µM (inactive) | –
14 | COc1cc2c(c(OC)c1OC)-c1ccc(SC)c(=O)cc1[C@@H](NCc1ccc(C#N)cc1)CC2 | 0.00411 µM (active) | 0.00387 µM (active) | 0.00472 | 0.00379 µM (active) | 3.74 µM (inactive) | 0.0041 µM (active) | 0.00315 µM (active) | 0.00612 µM (active) | 0.00365 µM (active) | 0.00449 µM (active) | 0.0488 µM (active) | 0.00811 µM (active) | 0.00671 µM (active) | 0.0764 µM (active) | 0.002 µM (active)
15 | CC(C)c1cccc(C(C)C)c1NC(=S)Nc1ccccc1 | > 100 µM (inactive) | > 100 µM (inactive) | > 100 | > 100 µM (inactive) | 10.8 µM (inactive) | > 100 µM (inactive) | > 100 µM (inactive) | > 100 µM (inactive) | 48 µM (inactive) | > 100 µM (inactive) | > 100 µM (inactive) | > 100 µM (inactive) | > 100 µM (inactive) | > 100 µM (inactive) | > 100 µM (inactive)
16 | COC(=O)C(CC(C)C)NC(=O)NC12CC3CC(CC(F)(C3)C1)C2 (configuration not stated) | > 100 µM (inactive) | > 100 µM (inactive) | – | > 100 µM (inactive) | – | > 100 µM (inactive) | > 100 µM (inactive) | – | > 100 µM (inactive) | – | > 100 µM (inactive) | > 100 µM (inactive) | > 100 µM (inactive) | 46.6 µM (inactive) | –
17 | CSc1nc2c(ncn2C2OC(CO)C(O)C(O)C2O)c(=O)[nH]1 (configuration not stated) | > 100 µM (inactive) | > 100 µM (inactive) | > 100 | > 100 µM (inactive) | > 100 µM (inactive) | > 100 µM (inactive) | > 100 µM (inactive) | > 100 µM (inactive) | > 100 µM (inactive) | > 100 µM (inactive) | > 100 µM (inactive) | – | > 100 µM (inactive) | > 100 µM (inactive) | –
18 | CCOC(=O)C1(C#N)C(c2ccccc2)CC(O)(c2ccc([N+](=O)[O-])cc2)C(C(=O)c2ccc([N+](=O)[O-])cc2)C1c1ccccc1 (configuration not stated) | > 100 µM (inactive) | > 100 µM (inactive) | > 100 | > 100 µM (inactive) | > 100 µM (inactive) | > 100 µM (inactive) | > 100 µM (inactive) | > 100 µM (inactive) | – | > 100 µM (inactive) | 32.2 µM (inactive) | > 100 µM (inactive) | > 100 µM (inactive) | > 100 µM (inactive) | > 100 µM (inactive)
19 | O=C1NC2OC(C(O)CO)C(O)C2O1 (configuration not stated) | > 100 µM (inactive) | > 100 µM (inactive) | > 100 | > 100 µM (inactive) | > 100 µM (inactive) | > 100 µM (inactive) | – | > 100 µM (inactive) | > 100 µM (inactive) | > 100 µM (inactive) | > 100 µM (inactive) | > 100 µM (inactive) | > 100 µM (inactive) | > 100 µM (inactive) | > 100 µM (inactive)
20 | CC(=O)OC1CC2OC(Cc3ccccc32)O1 (configuration not stated) | > 100 µM (inactive) | > 100 µM (inactive) | – | > 100 µM (inactive) | – | > 100 µM (inactive) | > 100 µM (inactive) | > 100 µM (inactive) | – | 64.1 µM (inactive) | > 100 µM (inactive) | > 100 µM (inactive) | > 100 µM (inactive) | > 100 µM (inactive) | > 100 µM (inactive)

Source: ChEMBL document CHEMBL1201862, “PubChem BioAssay data set” (2004)
